The text below walks through data of patent publication US12551524B2 (U.S. NUTRACEUTICALS, INC., priority 2021, dated 2026).

Assay [1] deals with men with mild to moderate androgenic alopecia. Particulars: 1 milligram per day, 24 months, 100 men; cited from earlier work.
For the next assay, the system named is normal shaved mice. The settings on record: after about 20 days; cited from earlier work.
Assay [2] addresses T1, 5α-Reductase Type 2 enzyme (Homo sapiens, UniProt P31213).
T1 sequence (P31213 1-254): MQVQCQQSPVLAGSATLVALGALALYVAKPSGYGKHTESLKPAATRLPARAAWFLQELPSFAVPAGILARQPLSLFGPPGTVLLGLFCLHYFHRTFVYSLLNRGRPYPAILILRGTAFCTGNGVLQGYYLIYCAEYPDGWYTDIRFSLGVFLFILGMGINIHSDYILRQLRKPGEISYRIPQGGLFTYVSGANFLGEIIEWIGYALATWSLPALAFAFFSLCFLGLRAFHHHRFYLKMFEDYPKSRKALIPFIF
The assay is described as follows: Inhibition of 5α-Reductase Type 2 (Inhibition Experiments 1 and 2). In kind it is biochemical. An excerpt:
(§1) The different free fatty acids of medium and long saturated chains and long unsaturated chains are shown, together with esterified fatty acids, oxidized fatty acids, fatty alcohols, phytosterols, and other components. The magnitude of the activity is designated by “none,” “moderate” or “very active” (FIG. 3). The various constituents shown in the table of FIG. 2 are also shown and listed as free fatty acid molecules with: a) medium, saturated chains, b) long, saturated chains, and c) long unsaturated chains. There are esterified fatty acids, oxidized fatty acids, and fatty alcohols. These tables support other evidence that the five active free fatty acids for prostate and hair health are lauric, myristic, oleic, linoleic and linolenic free fatty acids.
Data are shown in the graphs and bar charts of FIGS. 5 and 6 where data are reported as the effectiveness to inhibit enzyme activity (IC50). […]
Inhibition Experiment 2 shown in FIG. 6 determined the possible impact of Permixon® product matrix (PEG) on an in vitro assay and the pegylated and conventional ultra-high purity supercritical CO2 extract having the PEG matrix (U4602-PEG) was compared to the commercially available Permixon® and the conventional unpegylated product (U4602) for their ability to inhibit the 5α-Reductase 2 enzyme. […]

Assay [3] has as its target T2, 5α-Reductase Type 1 enzyme (Homo sapiens, UniProt P18405).
T2 sequence (P18405 1-259): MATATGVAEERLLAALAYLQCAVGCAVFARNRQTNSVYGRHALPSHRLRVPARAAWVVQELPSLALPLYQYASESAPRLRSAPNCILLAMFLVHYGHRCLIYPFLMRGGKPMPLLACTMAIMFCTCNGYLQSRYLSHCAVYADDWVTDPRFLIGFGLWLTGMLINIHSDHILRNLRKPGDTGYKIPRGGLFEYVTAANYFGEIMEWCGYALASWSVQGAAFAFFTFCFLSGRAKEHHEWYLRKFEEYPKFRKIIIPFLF
The assay is described as follows: Inhibition of 5α-Reductase Type 1. The class given is biochemical.
Description: as §1
Reference is now made to FIGS. 7B and 7C showing the use of a supercritical CO2 extracted LSESr and Permixon®.

Take `CC(C)(C)NC(=O)[C@H]1CC[C@H]2[C@@H]3CC[C@H]4NC(=O)C=C[C@]4(C)[C@H]3CC[C@]12C` [finasteride]: the “men who noted an improvement” value in assay [1] was 68%. On to `CCCCC/C=C\C/C=C\CCCCCCCC(=O)O` [linoleic acid], for which the hair growth entry in the assay on normal shaved mice was “about 100%”. As to `CCCCCCCC/C=C\CCCCCCCC(=O)O` [oleic acid], in assay [2], the “effect on 5α-Reductase-2 (in words)” value is reported as “not as much”. Also, in assay [3], the “effect on 5α-Reductase-1 (in words)” value is reported as “especially effective”.
